Source: a melting point compilation (Tetko et al.; mined from patent text by program, amines drawn as free bases though some values may be those of a salt)

| SMILES | melting point [°C] |
| --- | --- |
| CN1CCCC1=C(C#N)c1ccc([N+](=O)[O-])cc1 | 67 |
| COc1ccccc1-c1ccc(C[C@H](NC(=O)c2c(Cl)cccc2Cl)C(=O)O)cc1OC | 100 to 102 |
| COc1ccc(C(=O)Nc2ccccc2)cc1Nc1ccccc1 | 194 to 195 |
| CC(C)(C(=O)O)c1ccc(Cl)c([N+](=O)[O-])c1 | 157 |
| COc1ccc(-c2cc(=O)n(CC(C)C)nc2-c2ccc(OC)c(F)c2)cc1 | 86.8 to 87.4 |
| CCOc1ncc(Cl)cc1C1OC(=O)NC1=O (stereo not drawn) | 119 to 124 |
| Cc1n[nH]c2ccc(C3C(C#N)=C(C(F)F)NC(C(F)F)=C3C#N)cc12 | 289 |
| OC(c1ccc(F)cc1)C1CC2CCN1CC2 (stereo not drawn) | 69 to 70 |
| CC1(C)Oc2ccncc2C2OC21 (stereo not drawn) | 208 to 210 |
| CC12CCC3C(CCC4CC(=O)CCC43CO[Si](C)(C)C(C)(C)C)C1CCC2=O (stereo not drawn) | 130 to 132 |
| CC(C)(O)C1CCN(c2ccc(C#N)c3ccccc23)CC1 | 133 to 134 |
| Cc1cccc(-c2ccc3c(ccn3Cc3ccc(C(C)(C)C)cc3)c2)c1 | 94 to 95 |
| CCc1c(C)nc(SCc2cc(C)ccn2)[nH]c1=O | 130 to 132 |
| CN(C(=O)c1ccc2nonc2c1)C1CCSCC1 | 155 to 156 |
| FC(F)Oc1ccc(C=Cc2nc(CNc3ccc(CCCCn4ccnn4)cc3)co2)cc1 | 101 to 102 |
| Cc1c(CO)c(Cl)nc2ccccc12 | > 260 |
| O=C(O)c1ccc(-c2nc(-c3ccc(Cl)s3)co2)cc1 | 300 |
| CCNC(=O)CCCC1CCN(Cc2cnc3cc(NC(=O)c4ccc(-c5ccc(F)cc5)cc4)c(C)cc3c2)CC1 | 240 |
| COc1cc(/C=C/C(=O)c2ccc(NS(C)(=O)=O)cc2)cc(-c2cccs2)c1OC | 71 to 75 |
| Cc1oc2c(-c3ccc(F)cc3)c(-c3ccc(S(C)(=O)=O)cc3)nn2c1-c1cccs1 | 240 to 241 |
| O=[N+]([O-])c1ccccc1COc1ccc2ncc3c(c2c1)CCCC3 | 153 to 154 |

Now from value to molecule:

| melting point [°C] | SMILES |
| --- | --- |
| 108 to 110 | CN(Cc1cc2c3c(c1)c(=O)c(C(=O)NCc1ccc(F)cc1)cn3CC(=O)N2C)C[C@@H](O)c1cnccn1 |
| 83 to 86 | CCCCc1ccc(C(=O)NC(C)(C(N)=O)C(C)C)nc1 (stereo not drawn) |
| 96.1 | CCCCCCCCCc1ccc(-c2ccc(OCC(OC3CCCCO3)C(F)(F)F)nn2)cc1 (stereo not drawn) |
| 203 to 206 | COc1cc2c(cc1OC)-c1c(-c3nc(-c4ccccc4)no3)c(-c3cc(C)c(O)c(C)c3)c(C)n1C(C)C2 (racemic) |
| 226 to 237 | O=C1[C@H]2Cc3c([nH]c4ccccc34)[C@@H](c3ccc4c(c3)OCO4)N2C(=O)C2CNCCN12 (stereo partly drawn) |
| 175 | Cc1cccc(NC(=O)NCC(=O)N(Cc2ccccc2)c2ccccc2)c1 |
| 212 to 213 | CC(C)(C)OC(=O)N1CCN(c2cccc(-c3cnc4[nH]cc(C(=O)C5(C)CCCCC5)c4n3)c2)CC1 |
| 222 to 223 | Cn1c(COc2ccc(CC3SC(=O)NC3=O)cc2)nc2ccc(Cl)nc21 (stereo not drawn) |
| 228 to 230 | CCCc1nc2c(N)nc3cc(OCc4cccc(N)c4)ccc3c2n1CC(C)C |
| 108 | CCn1ncnc1COc1nn2c(-c3cc(F)ccc3F)nncc2c1C(C)(C)C |
| 100 to 101 | COC1CC(OCc2ccccc2)C(OS(=O)(=O)c2ccc(C)cc2)C(CO)O1 (stereo not drawn) |
| 79 to 81.5 | CCc1ccccc1NC(=O)C(C#N)=C(C)N(C)C |
| 212 to 213 | CCc1cnc(NC(=O)C2c3ccccc3Oc3ccccc32)o1 |
| 185 to 188 | CN(C(=O)CN(C(=O)CNC(=O)OC(C)(C)C)c1ccccc1O)c1ccccc1 |
| 144 to 145 | Cc1cc(C)cc(CN(C)C2CCCn3c2c(-c2ccccc2)c2cc(C)c(C)cc2c3=O)c1 (stereo not drawn) |
| 230 to 232 | Cc1nc(Nc2ccc(Cl)cc2)sc1-c1nc2ccccc2c(=O)n1-c1ccccc1 |
| 163 to 165 | COc1cc(OC)cc(-c2ncoc2-c2ccc(OC)c(N)c2)c1 |
